From the supplement of paper PMC9663587

Columns and labels:
AZD6738 = compound: C[C@@H]1COCCN1c1cc(C2([S@](C)(=N)=O)CC2)nc(-c2cc[nH]c3nccc2-3)n1 [AZD6738]
BSJ-01-175 = compound: CN(C)C/C=C/C(=O)Nc1ccc(O[C@@H]2CCC[C@@H](Nc3ncc(Cl)c(-c4c[nH]c5ccccc45)n3)C2)cc1 [BSJ-01-175]
Ceritinib/LDK378 = compound: Cc1cc(Nc2ncc(Cl)c(Nc3ccccc3S(=O)(=O)C(C)C)n2)c(OC(C)C)cc1C1CCNCC1 [Ceritinib/LDK378]
Cediranib/AZD2171 = compound: COc1cc2c(Oc3ccc4[nH]c(C)cc4c3F)ncnc2cc1OCCCN1CCCC1 [Cediranib/AZD2171]
Tivantinib/ARQ197 = compound: O=C1NC(=O)[C@@H](c2cn3c4c(cccc24)CCC3)[C@@H]1c1c[nH]c2ccccc12 [Tivantinib/ARQ197]
Rucaparib = compound: CNCc1ccc(-c2[nH]c3cc(F)cc4c3c2CCNC4=O)cc1 [Rucaparib]
Paclitaxel = compound: CC(=O)O[C@H]1C(=O)[C@@]2(C)[C@H]([C@H](OC(=O)c3ccccc3)[C@]3(O)C[C@H](OC(=O)[C@H](O)[C@@H](NC(=O)c4ccccc4)c4ccccc4)C(C)=C1C3(C)C)[C@]1(OC(C)=O)CO[C@@H]1C[C@@H]2O [Paclitaxel]
THZ531 [1] = compound: T1, CN(C)C/C=C/C(=O)Nc1ccc(C(=O)N2CCC[C@@H](Nc3ncc(Cl)c(-c4c[nH]c5ccccc45)n3)C2)cc1 [THZ531]
Pictilisib/GDC0941 = compound: CS(=O)(=O)N1CCN(Cc2cc3nc(-c4cccc5[nH]ncc45)nc(N4CCOCC4)c3s2)CC1 [Pictilisib/GDC0941]
THZ1 = compound: CN(C)C/C=C/C(=O)Nc1ccc(C(=O)Nc2cccc(Nc3ncc(Cl)c(-c4c[nH]c5ccccc45)n3)c2)cc1 [THZ1]; experiment: GR value, 72 h; higher = faster growth (1 = untreated, <0 = killing);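 further: breast cancer and non-malignant breast epithelial lines, nine half-log doses, viable cells counted by Hoechst and LIVE/DEAD dye imaging versus time-zero plates and DMSO controls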
YKL-5-124 = compound: C=CC(=O)Nc1ccc(C(=O)Nc2[nH]nc3c2CN(C(=O)N[C@H](CN(C)C)c2ccccc2)C3(C)C)cc1 [YKL-5-124]; experiment: as above
[2] = compound: CCN1CCN(Cc2ccc(Nc3ncc(F)c(-c4cc(F)c5nc(C)n(C(C)C)c5c4)n3)nc2)CC1; experiment: as above
THZ531 [3] = compound: T1, THZ531; experiment: as above
[4] = compound: CCc1cnn2c(NCc3ccc[n+]([O-])c3)cc(N3CCCC[C@H]3CCO)nc12; experiment: as above
[5] = compound: CC(=O)c1c(C)c2cnc(Nc3ccc(N4CCNCC4)cn3)nc2n(C2CCCC2)c1=O; experiment: as above
BSJ-03-123 = compound: CC(=O)c1c(C)c2cnc(Nc3ccc(N4CCN(CCOCCOCCOCCNC(=O)COc5cccc6c5C(=O)N(C5CCC(=O)NC5=O)C6=O)CC4)cn3)nc2n(C2CCCC2)c1=O [BSJ-03-123]; experiment: as above
LEE011/Ribociclib = compound: CN(C)C(=O)c1cc2cnc(Nc3ccc(N4CCNCC4)cn3)nc2n1C1CCCC1 [LEE011/Ribociclib]; experiment: as above
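Wherever GR50, 72 h is given: breast cancer and non-malignant breast epithelial cell lines, Deep Dye Drop or Dye Drop imaging, nine half-log doses, GR normalized to time-zero plates and DMSO-only controls.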

Question: What does the source list for SUM185PE?
Answer: GR50, 72 h (AZD6738): > 10 µM; GR50, 72 h (BSJ-01-175): 0.103 µM; GR50, 72 h (Ceritinib/LDK378): 0.983 µM; GR50, 72 h (Cediranib/AZD2171): 0.0358 µM; GR50, 72 h (Tivantinib/ARQ197): 0.784 µM; GR50, 72 h (Rucaparib): > 10 µM; GR50, 72 h (Paclitaxel): 0.00463 µM; GR50, 72 h (THZ531 [1]): 0.136 µM; GR50, 72 h (Pictilisib/GDC0941): 0.127 µM; GR value (THZ1; 0.0001 µM): 1.02 GR; GR value (THZ1; 0.0003162 µM): 0.945 GR; GR value (THZ1; 0.001 µM): 1.02 GR; GR value (THZ1; 0.003162 µM): 0.734 GR; GR value (THZ1; 0.01 µM): 0.855 GR; GR value (THZ1; 0.03162 µM): -0.061 GR; GR value (THZ1; 0.1 µM): 0.0851 GR; GR value (THZ1; 0.3162 µM): 0.0061 GR; GR value (THZ1; 1 µM): -0.203 GR; GR value (YKL-5-124; 0.001 µM): 0.7 GR; GR value (YKL-5-124; 0.003162 µM): 0.648 GR; GR value (YKL-5-124; 0.01 µM): 0.517 GR; GR value (YKL-5-124; 0.03162 µM): 0.469 GR; GR value (YKL-5-124; 0.1 µM): 0.434 GR; GR value (YKL-5-124; 0.3162 µM): 0.474 GR; GR value (YKL-5-124; 1 µM): 0.496 GR; GR value (YKL-5-124; 3.162 µM): 0.231 GR; GR value (YKL-5-124; 10 µM): -0.008 GR; GR value ([2]; 0.001 µM): 0.941 GR; GR value ([2]; 0.003162 µM): 0.871 GR; GR value ([2]; 0.01 µM): 0.877 GR; GR value ([2]; 0.03162 µM): 0.874 GR; GR value ([2]; 0.1 µM): 0.742 GR; GR value ([2]; 0.3162 µM): 0.691 GR; GR value ([2]; 1 µM): 0.613 GR; GR value ([2]; 3.162 µM): 0.595 GR; GR value ([2]; 10 µM): 0.5 GR; GR value (THZ531 [3]; 0.0001 µM): 1.06 GR; GR value (THZ531 [3]; 0.0003162 µM): 1 GR; GR value (THZ531 [3]; 0.001 µM): 1.02 GR; GR value (THZ531 [3]; 0.003162 µM): 1.02 GR; GR value (THZ531 [3]; 0.01 µM): 1.03 GR; GR value (THZ531 [3]; 0.03162 µM): 1.06 GR; GR value (THZ531 [3]; 0.1 µM): 0.851 GR; GR value (THZ531 [3]; 0.3162 µM): -0.187 GR; GR value (THZ531 [3]; 1 µM): 0.19 GR; GR value ([4]; 0.0001 µM): 1.06 GR; GR value ([4]; 0.0003162 µM): 1.2 GR; GR value ([4]; 0.001 µM): 1.04 GR; GR value ([4]; 0.003162 µM): 0.999 GR; GR value ([4]; 0.01 µM): 0.955 GR; GR value ([4]; 0.03162 µM): 0.387 GR; GR value ([4]; 0.1 µM): 0.227 GR; GR value ([4]; 0.3162 µM): 0.203 GR; GR value ([4]; 1 µM): 0.171 GR; GR value ([5]; 0.0003162 µM): 1 GR; GR value ([5]; 0.001 µM): 1.03 GR; GR value ([5]; 0.003162 µM): 0.956 GR; GR value ([5]; 0.01 µM): 0.996 GR; GR value ([5]; 0.03162 µM): 0.96 GR; GR value ([5]; 0.1 µM): 0.923 GR; GR value ([5]; 0.3162 µM): 0.781 GR; GR value ([5]; 1 µM): 0.86 GR; GR value ([5]; 3.162 µM): 0.754 GR; GR value (BSJ-03-123; 0.001 µM): 0.901 GR; GR value (BSJ-03-123; 0.003162 µM): 0.946 GR; GR value (BSJ-03-123; 0.01 µM): 0.906 GR; GR value (BSJ-03-123; 0.03162 µM): 0.922 GR; GR value (BSJ-03-123; 0.1 µM): 0.819 GR; GR value (BSJ-03-123; 0.3162 µM): 0.776 GR; GR value (BSJ-03-123; 1 µM): 0.799 GR; GR value (BSJ-03-123; 3.162 µM): 0.758 GR; GR value (BSJ-03-123; 10 µM): 0.649 GR; GR value (LEE011/Ribociclib; 0.001 µM): 0.867 GR; GR value (LEE011/Ribociclib; 0.003162 µM): 1.04 GR; GR value (LEE011/Ribociclib; 0.01 µM): 0.798 GR; GR value (LEE011/Ribociclib; 0.03162 µM): 0.942 GR; GR value (LEE011/Ribociclib; 0.1 µM): 1 GR; GR value (LEE011/Ribociclib; 0.3162 µM): 0.948 GR; GR value (LEE011/Ribociclib; 1 µM): 0.913 GR; GR value (LEE011/Ribociclib; 3.162 µM): 0.832 GR; GR value (LEE011/Ribociclib; 10 µM): 0.846 GR
